Four molecules from patent US8563545B2, “Compound useful for the treatment of degenerative and inflammatory diseases” (Galapagos NV, priority 2009, dated 2013) can be followed below.

“And” between values parts separate entries of the source, which are not always exact repeats. Identical values can stand only once. Like-named read-outs stand apart in the source and are kept apart here. Bounds are passed on as bounds.

Series [1] in a line: Plasma protein binding (equilibrium dialysis), human. Format: in vitro ADME. The settings on record: 10 μM, 4 hrs at 37° C. The protocol: A 10 mM stock solution of the compound in DMSO was diluted with a factor 5 in DMSO. This solution was further diluted in freshly thawed human, rat, mouse or dog plasma (BioReclamation INC) with a final concentration of 10 μM and final DMSO concentration of 0.5% (5.5 μL in 1094.5 μL plasma in a PP-Masterblock 96 well (Greiner, Cat no. 780285))
A Pierce Red Device plate with inserts (ThermoScientific, Cat no. 89809) was prepared and filled with 750 μL PBS in the buffer chamber and 500 μL of the spiked plasma in the plasma chamber. The plate was incubated for 4 hrs at 37° C. while shaking at 230 rpm. After incubation, 120 μL of both chambers was transferred to 360 μL acetonitrile in a 96-well round bottom, PP deep-well plates (Nunc, Cat no. 278743) and sealed with an aluminum foil lid. The samples were mixed and placed on ice for 30 min. This plate was then centrifuged 30 min at 1200 rcf at 4° C. and the supernatant was transferred to a 96 v-bottom PP plate (Greiner, 651201) for analysis on LCMS.
The plate is sealed with sealing mats (MA96RD-04S) of www.kinesis.co.uk and samples are measured at room temperature on LCMS (ZQ 1525 from Waters) under optimized conditions using Quanoptimize to determine the appropriate mass of the molecule.
The samples were analyzed on LCMS with a flow rate of […]. Solvent A was 15 mM ammonia and solvent B was acetonitrile. The sample was run under positive ion spray on an XBridge C18 3.5 μM (2.1×30 mm) column, from Waters. The solvent gradient has a total run time of 2 minutes and ranges from 5% B to 95% B.
Peak area from the compound in the buffer chamber and the plasma chamber are considered to be 100% compound.

A short description of a further series: Caco2 permeability. It counts as in vitro ADME. The settings on record: human; for efflux ratio at 1 h, 10 µM: Caco-2, pH 7.4, Papp B>A/Papp A>B; for Papp at 1 h, 10 µM: pH 7.4, Caco-2, 10 μM. The protocol: Bi-directional Caco-2 assays were performed as described below. Caco-2 cells were obtained from European Collection of Cell Cultures (ECACC, cat 86010202) and used after a 21 day cell culture in 24-well Transwell plates (Fisher TKT-545-020B).
2×10^5 cells/well were seeded in plating medium consisting of DMEM+GlutaMAXI+1% NEAA+10% FBS (FetalClone II)+1% Pen/Strep. The medium was changed every 2-3 days.
Test and reference compounds (propranolol and rhodamine123 or vinblastine, all purchased from Sigma) were prepared in Hanks' Balanced Salt Solution containing 25 mM HEPES (pH7.4) and added to either the apical (125 μL) or basolateral (600 μL) chambers of the Transwell plate assembly at a concentration of 10 μM with a final DMSO concentration of 0.25%.
50 μM Lucifer Yellow (Sigma) was added to the donor buffer in all wells to assess integrity of the cell layers by monitoring Lucifer Yellow permeation. As Lucifer Yellow (LY) cannot freely permeate lipophilic barriers, a high degree of LY transport indicates poor integrity of the cell layer.
After a 1 hr incubation at 37° C. while shaking at an orbital shaker at 150 rpm, 70 μL aliquots were taken from both apical (A) and basal (B) chambers and added to 100 μL1 50:50 acetonitrile:water solution containing analytical internal standard (0.5 μM carbamazepine) in a 96 well plate.
Concentrations of compound in the samples were measured by high performance liquid-chromatography/mass spectroscopy (LC-MS/MS).
The Efflux ratios, as an indication of active efflux from the apical cell surface, were calculated using the ratio of Papp B>A/Papp A>B.

The next series deals with JAK2 (Homo sapiens (Human), UniProt O60674). The series is described as follows: JAK2 inhibition assay. Format: biochemical. The procedure: After 90 min at 30° C., reactions were stopped by adding of 25 μL/well of 150 mM phosphoric acid. […] Plates were washed 6 times with 300 μL per well of a 75 mM phosphoric acid solution and the bottom of the plates was sealed. 40 μL/well of Microscint-20 was added, the top of the plates was sealed and readout was performed using the Topcount (Perkin Elmer). Kinase activity was calculated by subtracting counts per minute (cpm) obtained in the presence of a positive control inhibitor (10 μM staurosporine) from cpm obtained in the presence of vehicle. The ability of a test compound to inhibit this activity was determined as:
Percentage inhibition=((cpm determined for sample with test compound present−cpm determined for sample with positive control inhibitor)divided by(cpm determined in the presence of vehicle−cpm determined for sample with positive control inhibitor))*100.
Dose dilution series were prepared for the compounds enabling the testing of dose-response effects in the JAK2 assay and the calculation of the IC50 for each compound.

A short description of a further series: Aqueous solubility. Format: physicochemical. The settings on record: kinetic from dmso stock. The protocol: Starting from a 10 mM stock in DMSO, a serial dilution of the compound was prepared in DMSO. The dilution series was transferred to a 96 NUNC Maxisorb plate F-bottom (Cat no. 442404) and 0.2M phosphate buffer pH7.4 or 0.1M citrate buffer pH 3.0 at room temperature was added.
The final concentration ranged from 200 μM to 2.5 μM in 5 equal dilution steps. […] 200 μM Pyrene was added to the corner points of each 96 well plate and served as a reference point for calibration of Z-axis on the microscope.
The assay plates were sealed and incubated for 1 hr at 37° C. while shaking at 230 rpm. The plates were then scanned under a white light microscope, yielding individual pictures of the precipitate per concentration. The precipitate was analyzed and converted into a number which was plotted onto a graph. The first concentration at which the compound appears completely dissolved is the concentration is reported below, however the true concentration lies somewhere between this concentration and one dilution step higher.
Solubility values are reported in μg/mL

The mark [2] stands for this setting: 0.2 M phosphate buffer pH 7.4, 37 °C, pH 7.4, aqueous buffer, 0.2M phosphate buffer pH7.4, read-out: Aqueous solubility pH 7.4.
Where [3] appears, read: 37 °C, aqueous buffer, 0.1M citrate buffer pH 3.0, read-out: Aqueous solubility pH 3.0.

JAK2, sequence (O60674 808-1132): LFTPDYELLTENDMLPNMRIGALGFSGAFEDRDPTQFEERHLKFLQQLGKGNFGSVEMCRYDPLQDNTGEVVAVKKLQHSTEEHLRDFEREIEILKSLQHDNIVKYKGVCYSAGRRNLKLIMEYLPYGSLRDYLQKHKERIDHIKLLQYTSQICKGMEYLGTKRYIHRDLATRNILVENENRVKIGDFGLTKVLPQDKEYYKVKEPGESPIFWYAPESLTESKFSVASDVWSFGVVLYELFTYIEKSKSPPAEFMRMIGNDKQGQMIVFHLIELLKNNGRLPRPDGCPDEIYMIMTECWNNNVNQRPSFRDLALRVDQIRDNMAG

On to `O=C(Nc1nc2cccc(-c3ccc(CN4CCC(F)(F)CC4)cc3)n2n1)C1CC1` [Compound 11, Cyclopropanecarboxylic acid {5-[4-(4,4-difluoro-piperidin-1-ylmethyl)-phenyl]-[1,2,4]triazolo [1,5-a]pyridin-2-yl}-amide], for which the “percentage bound to plasma, Human” value in series [1] was found to be 91.25%. In “Caco2 permeability”, the efflux ratio at 1 h, 10 µM stood at 0.9 and the Papp at 1 h, 10 µM came to 365 nm/s. Further, at JAK2, half-maximal inhibition (IC50) was put at 0.0155 µM.
For `O=C(Nc1nc2cccc(-c3ccc(CN4CCOCC4)cc3)n2n1)C1CC1` [Compound 2, N-(5-(4-(morpholinomethyl)phenyl)-[1,2,4]triazolo[1,5-a]pyridin-2-yl)cyclopropanecarboxamide], the “percentage bound to plasma, Human” value in series [1] was found to be 70.5%. In addition, in “Caco2 permeability”, the Papp at 1 h, 10 µM amounted to 250 nm/s. In addition, on JAK2, the IC50 is 0.0387 µM and 0.152 µM and 0.185 µM. For the same molecule, the solubility at 1 h in “Aqueous solubility” (setting [2]) and in the series “Aqueous solubility” (setting [3]) was above 0.038 mg/mL in each case.
Consider `O=C(Nc1nc2cccc(-c3ccc(C(=O)N4CCS(=O)(=O)CC4)cc3)n2n1)C1CC1` [Compound 10, Cyclopropanecarboxylic acid {5-[4-(1,1-dioxo-1-thiomorpholine-4-carbonyl)-phenyl]-[1,2,4]triazolo [1,5-a]pyridin-2-yl}-amide], for which, in “Caco2 permeability”, the efflux ratio at 1 h, 10 µM came out at 97.6. This molecule came in with an apparent permeability coefficient (Papp) at 1 h, 10 µM in “Caco2 permeability” of 0.5 nm/s. For the same molecule, inhibition on JAK2 was half-maximal at 0.0654 µM (IC50). For the same molecule, the solubility at 1 h in “Aqueous solubility” (setting [2]) and in the series “Aqueous solubility” (setting [3]) was above 0.0879 mg/mL each time.
For `O=C(Nc1nc2cccc(-c3ccc(CN4CCS(=O)(=O)CC4)cc3)n2n1)C1CC1` [Compound 1, Cyclopropanecarboxylic acid {5-[4-(1,1-dioxo-1-thiomorpholin-4-ylmethyl)-phenyl]-[1,2,4]triazolo [1,5-a]pyridin-2-yl}-amide], in series [1], the “percentage bound to plasma, Human” value was 76.4%. The molecule further gave an apparent permeability coefficient (Papp) at 1 h, 10 µM in the series “Caco2 permeability” of 33.3 nm/s. The solubility at 1 h in the series “Aqueous solubility” (setting [2]) and in “Aqueous solubility” (setting [3]) was above 0.085 mg/mL throughout.

Broadly, the efflux ratio is the permeability from basolateral to apical divided by that in the opposite direction, in the common usage. What is called Papp is a coefficient for how fast a substance crosses the barrier. Read a low Papp as poor permeation. As a reminder, the IC50 is the midpoint of a concentration-inhibition curve. A lower IC50 goes with higher potency. One may read the solubility as the dissolved amount per volume that the medium holds.
